According to patent US11214594B2, “Antimicrobial peptide having synergistic antibacterial effect with antibiotics on multidrug resistant bacteria, and use thereof” (priority 2016, dated 2022):
Values after ≈ are worked out from the molar mass of the structure shown. Where a SMILES comes first, the peptide text is derived from it. [ ]: non-standard residue; d: D form.

Key:
MDRAB 12035 = assay: MIC of antibiotic during combined treatment with antimicrobial peptide; format: cell-based, Acinetobacter baumannii
How it was run: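 Broth microdilution in MH medium; strains were diluted to 2×10^6 CFU per ml before plating. Peptide was serially diluted stepwise at 2:1 starting from its MIC, and MH-diluted antibiotic was then added to determine MIC. The reversed arrangement was also tested.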

MDRPA 2003 = format: cell-based, Pseudomonas aeruginosa
How it was run: (§1)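 MIC read-out = lowest peptide level with no bacterial proliferation. Strains diluted in MH medium to 2×10^6 CFU; peptide twofold serial dilutions in MH added 1:1 in microtiter wells.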

MDRPA 2002 = format: cell-based, Pseudomonas aeruginosa
How it was run: as §1

E. coli = assay: MIC of antibiotic during combined treatment with antimicrobial peptide; format: cell-based, Escherichia coli; settings: for Antibiotic MIC, Erythromycin / Antibiotic MIC, Linezolid / Antibiotic MIC, Vancomycin: E. coli
How it was run: (§2)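 First, antibiotic solution is diluted with MH medium; next, the dilution is dispensed into wells containing peptide; finally, the orientation is swapped and MIC of each mixture determined.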

A. baumannii = assay: as above; format: cell-based, Acinetobacter baumannii; settings: for Antibiotic MIC, Erythromycin / Antibiotic MIC, Linezolid / Antibiotic MIC, Vancomycin: A. baumannii
How it was run: as §2

[1] = peptide treatment concentration 64 μg/ml
[2] = combined with peptide at 1 μg/ml
[3] = combined with peptide at 2 μg/ml
[4] = combined with peptide at 4 μg/ml
[5] = combined with peptide at 6 μg/ml
[6] = combined with peptide at 8 μg/ml
[7] = combined with peptide at 16 μg/ml
[8] = combined with peptide at 32 μg/ml
[9] = combined with peptide at 64 μg/ml

SMILES: CC[C@H](C)[C@H](NC(=O)[C@H](CCCCN)NC(=O)[C@H](Cc1c[nH]c2ccccc12)NC(=O)[C@@H](N)CCCNC(=N)N)C(=O)N[C@@H](Cc1ccccc1)C(=O)N[C@@H](CCCCN)C(=O)N[C@@H](CCCCN)C(=O)N[C@H](C(=O)N[C@H](CCCCN)C(=O)N[C@@H](CCCCN)C(=O)N[C@@H](CC(C)C)C(=O)N[C@@H](CC(C)C)C(=O)N[C@@H](Cc1c[nH]cn1)C(=O)N[C@@H](CCCCN)C(=O)N[C@@H](Cc1ccccc1)C(=O)N[C@@H](CCCCN)C(=O)N[C@@H](CCCCN)C(=O)N[C@@H](Cc1ccccc1)C(N)=O)[C@@H](C)CC [PapMA-17, RWK IFK KIk KLL HKF KKF-NH2] (H-RWKIFKKI[dK]KLLHKFKKF-NH2; N-terminus assumed)
- Vancomycin MIC during combined treatment with peptide (MDRAB 12035; peptide treatment concentration 32 μg/ml): 0 µg/mL
- Erythromycin MIC during combined treatment with peptide (MDRAB 12035; [1]): 0 µg/mL
- Linezolid MIC during combined treatment with peptide (MDRAB 12035; [1]): 0 µg/mL
- Vancomycin MIC during combined treatment with peptide (MDRAB 12035; [1]): 0 µg/mL
- Minimal inhibitory concentration MIC (MDRPA 2003): 16 µg/mL (≈ 6.62 µM)
- Minimal inhibitory concentration MIC (MDRPA 2002): 16 µg/mL (≈ 6.62 µM)
- Synergistic effect of antibacterial activity with existing antibiotics compared with PapMA-1 (E. coli; E. coli and MDREC1229): higher level than the PapMA-1 peptide
- Antibiotic MIC, Erythromycin (E. coli; erythromycin combined with peptide at 1 μg/ml): 128 µg/mL
- Antibiotic MIC, Erythromycin (E. coli; erythromycin combined with peptide at 2 μg/ml): 16 µg/mL
- Antibiotic MIC, Erythromycin (E. coli; erythromycin combined with peptide at 4 μg/ml): 8 µg/mL
- Antibiotic MIC, Erythromycin (E. coli; erythromycin combined with peptide at 6 μg/ml): 2 µg/mL
- Antibiotic MIC, Erythromycin (E. coli; erythromycin combined with peptide at 8 μg/ml): 1 µg/mL
- Antibiotic MIC, Erythromycin (E. coli; erythromycin combined with peptide at 16 μg/ml): 0 µg/mL
- Antibiotic MIC, Erythromycin (E. coli; erythromycin combined with peptide at 32 μg/ml): 0 µg/mL
- Antibiotic MIC, Erythromycin (E. coli; erythromycin combined with peptide at 64 μg/ml): 0 µg/mL
- Antibiotic MIC, Linezolid (E. coli; linezolid combined with peptide at 1 μg/ml): >128 µg/mL
- Antibiotic MIC, Linezolid (E. coli; linezolid combined with peptide at 2 μg/ml): >128 µg/mL
- Antibiotic MIC, Linezolid (E. coli; linezolid combined with peptide at 4 μg/ml): 32 µg/mL
- Antibiotic MIC, Linezolid (E. coli; linezolid combined with peptide at 6 μg/ml): 16 µg/mL
- Antibiotic MIC, Linezolid (E. coli; linezolid combined with peptide at 8 μg/ml): 8 µg/mL
- Antibiotic MIC, Linezolid (E. coli; linezolid combined with peptide at 16 μg/ml): 0 µg/mL
- Antibiotic MIC, Linezolid (E. coli; linezolid combined with peptide at 32 μg/ml): 0 µg/mL
- Antibiotic MIC, Linezolid (E. coli; linezolid combined with peptide at 64 μg/ml): 0 µg/mL
- Antibiotic MIC, Vancomycin (E. coli; vancomycin combined with peptide at 1 μg/ml): >128 µg/mL
- Antibiotic MIC, Vancomycin (E. coli; vancomycin combined with peptide at 2 μg/ml): >128 µg/mL
- Antibiotic MIC, Vancomycin (E. coli; vancomycin combined with peptide at 4 μg/ml): 128 µg/mL
- Antibiotic MIC, Vancomycin (E. coli; vancomycin combined with peptide at 6 μg/ml): 32 µg/mL
- Antibiotic MIC, Vancomycin (E. coli; vancomycin combined with peptide at 8 μg/ml): 16 µg/mL
- Antibiotic MIC, Vancomycin (E. coli; vancomycin combined with peptide at 16 μg/ml): 0 µg/mL
- Antibiotic MIC, Vancomycin (E. coli; vancomycin combined with peptide at 32 μg/ml): 0 µg/mL
- Antibiotic MIC, Vancomycin (E. coli; vancomycin combined with peptide at 64 μg/ml): 0 µg/mL
- Synergistic effect of antibacterial activity with existing antibiotics compared with PapMA-1 (A. baumannii; A. baumannii and MDRAB 12035): level similar to that of PapMA-1 peptide
- Antibiotic MIC, Erythromycin (A. baumannii; [2]): 32 µg/mL
- Antibiotic MIC, Linezolid (A. baumannii; [2]): >128 µg/mL
- Antibiotic MIC, Vancomycin (A. baumannii; [2]): >128 µg/mL
- Antibiotic MIC, Erythromycin (A. baumannii; [3]): 16 µg/mL
- Antibiotic MIC, Linezolid (A. baumannii; [3]): 64 µg/mL
- Antibiotic MIC, Vancomycin (A. baumannii; [3]): >128 µg/mL
- Antibiotic MIC, Erythromycin (A. baumannii; [4]): 8 µg/mL
- Antibiotic MIC, Linezolid (A. baumannii; [4]): 32 µg/mL
- Antibiotic MIC, Vancomycin (A. baumannii; [4]): 64 µg/mL
- Antibiotic MIC, Erythromycin (A. baumannii; [5]): 2 µg/mL
- Antibiotic MIC, Linezolid (A. baumannii; [5]): 32 µg/mL
- Antibiotic MIC, Vancomycin (A. baumannii; [5]): 32 µg/mL
- Antibiotic MIC, Erythromycin (A. baumannii; [6]): 0.25 µg/mL
- Antibiotic MIC, Linezolid (A. baumannii; [6]): 8 µg/mL
- Antibiotic MIC, Vancomycin (A. baumannii; [6]): 16 µg/mL
- Antibiotic MIC, Erythromycin (A. baumannii; [7]): 0.125 µg/mL
- Antibiotic MIC, Linezolid (A. baumannii; [7]): 2 µg/mL
- Antibiotic MIC, Vancomycin (A. baumannii; [7]): 4 µg/mL
- Antibiotic MIC, Erythromycin (A. baumannii; [8]): 0 µg/mL
- Antibiotic MIC, Linezolid (A. baumannii; [8]): 0 µg/mL
- Antibiotic MIC, Vancomycin (A. baumannii; [8]): 0 µg/mL
- Antibiotic MIC, Erythromycin (A. baumannii; [9]): 0 µg/mL
- Antibiotic MIC, Linezolid (A. baumannii; [9]): 0 µg/mL
- Antibiotic MIC, Vancomycin (A. baumannii; [9]): 0 µg/mL
